From publication PMC8359193, “Summary of reference chemicals evaluated by the fish short‐term reproduction assay, OECD TG229, using Japanese Medaka, Oryzias latipes” (Journal of Applied Toxicology, 2021)

Test system: Japanese medaka (Oryzias latipes)
Assay: Fish short-term reproduction assay (FSTRA, OECD TG229), 21-day flow-through exposure
Conditions: for Fertility rate (%) / Mortality (%) Female / Mortality (%) Male / Number of fertilized eggs / Number of total eggs / SSC Female / SSC Male / VTG (ng/mg of liver) Female / VTG (ng/mg of liver) Male: 21 days; for GSI Female / GSI Male / HSI Female / HSI Male / Length Female / Length Male / Weight Female / Weight Male: at completion of exposure; for effect on fecundity (number of total eggs), in words: within the test concentrations
How it was run: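 Run to OECD TG229: mature NIES-R medaka pairs (3♂/3♀ per vessel, 4 vessels per treatment plus dilution water control) were dosed by continuous flow-through for 21 days. Test concentrations were spaced 2- to 5-fold. Daily spawned eggs were counted under the microscope for fertilized versus unfertilized.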

CC(=O)N1CCN(c2ccc(OCC3COC(Cn4ccnc4)(c4ccc(Cl)cc4Cl)O3)cc2)CC1 (stereo not drawn) [KCZ, Ketoconazole]
effect on male SSC, in words (21-day exposure): statistical significance | LOEC for decrease of VTG in females (hepatic VTG, 21-day exposure, measured conc.): 233 µg/L | Fertility rate (%) (measured conc. 105 μg/L): 91% | Mortality (%) Female (measured conc. 105 μg/L): 0% | Mortality (%) Male (measured conc. 105 μg/L): 0% | Number of fertilized eggs (measured conc. 105 μg/L): 22 | Number of total eggs (measured conc. 105 μg/L): 24 ± 1.1 /female/day | SSC Female (measured conc. 105 μg/L): 0 ± 0 | SSC Male (measured conc. 105 μg/L): 82 ± 10 | VTG (ng/mg of liver) Female (measured conc. 105 μg/L): 618 ± 81 ng/mg of liver | VTG (ng/mg of liver) Male (measured conc. 105 μg/L): 1.4 ± 0.3 ng/mg of liver | GSI Female (measured conc. 105 μg/L): 11.6% | GSI Male (measured conc. 105 μg/L): 1.08% | HSI Female (measured conc. 105 μg/L): 4.2% | HSI Male (measured conc. 105 μg/L): 1.9% | Length Female (measured conc. 105 μg/L): 33.2 mm | Length Male (measured conc. 105 μg/L): 32.7 mm | Weight Female (measured conc. 105 μg/L): 387 mg | Weight Male (measured conc. 105 μg/L): 381 mg | Fertility rate (%) (measured conc. 233 μg/L): 89% | Mortality (%) Female (measured conc. 233 μg/L): 0% | Mortality (%) Male (measured conc. 233 μg/L): 0% | Number of fertilized eggs (measured conc. 233 μg/L): 18 | Number of total eggs (measured conc. 233 μg/L): 20 ± 1.6 /female/day | SSC Female (measured conc. 233 μg/L): 0 ± 0 | SSC Male (measured conc. 233 μg/L): 116 ± 25 | VTG (ng/mg of liver) Female (measured conc. 233 μg/L): 542 ± 353 ng/mg of liver | VTG (ng/mg of liver) Male (measured conc. 233 μg/L): 1.3 ± 0.1 ng/mg of liver | GSI Female (measured conc. 233 μg/L): 12.0% | GSI Male (measured conc. 233 μg/L): 1.26% | HSI Female (measured conc. 233 μg/L): 8.8% | HSI Male (measured conc. 233 μg/L): 3.8% | Length Female (measured conc. 233 μg/L): 33.3 mm | Length Male (measured conc. 233 μg/L): 33.3 mm | Weight Female (measured conc. 233 μg/L): 419 mg | Weight Male (measured conc. 233 μg/L): 416 mg | Fertility rate (%) (measured conc. 405 μg/L): 81% | Mortality (%) Female (measured conc. 405 μg/L): 8% | Mortality (%) Male (measured conc. 405 μg/L): 0% | Number of fertilized eggs (measured conc. 405 μg/L): 9.0 | Number of total eggs (measured conc. 405 μg/L): 11 ± 4.4 /female/day | SSC Female (measured conc. 405 μg/L): 0 ± 0 | SSC Male (measured conc. 405 μg/L): 91 ± 13 | VTG (ng/mg of liver) Female (measured conc. 405 μg/L): 190 ± 123 ng/mg of liver | VTG (ng/mg of liver) Male (measured conc. 405 μg/L): 1.1 ± 0.1 ng/mg of liver | GSI Female (measured conc. 405 μg/L): 13.6% | GSI Male (measured conc. 405 μg/L): 0.98% | HSI Female (measured conc. 405 μg/L): 12.1% | HSI Male (measured conc. 405 μg/L): 3.5% | Length Female (measured conc. 405 μg/L): 32.6 mm | Length Male (measured conc. 405 μg/L): 32.4 mm | Weight Female (measured conc. 405 μg/L): 410 mg | Weight Male (measured conc. 405 μg/L): 404 mg | Fertility rate (%) (measured conc. 795 μg/L): 76% | Mortality (%) Female (measured conc. 795 μg/L): 42% | Mortality (%) Male (measured conc. 795 μg/L): 58% | Number of fertilized eggs (measured conc. 795 μg/L): 3.5 | Number of total eggs (measured conc. 795 μg/L): 4.7 ± 0.9 /female/day | SSC Female (measured conc. 795 μg/L): 0 ± 0 | SSC Male (measured conc. 795 μg/L): 80 ± 22 | VTG (ng/mg of liver) Female (measured conc. 795 μg/L): 56 ± 95 ng/mg of liver | VTG (ng/mg of liver) Male (measured conc. 795 μg/L): 1.1 ± 0.1 ng/mg of liver | GSI Female (measured conc. 795 μg/L): 11.0% | GSI Male (measured conc. 795 μg/L): 1.35% | HSI Female (measured conc. 795 μg/L): 11.8% | HSI Male (measured conc. 795 μg/L): 5.1% | Length Female (measured conc. 795 μg/L): 31.7 mm | Length Male (measured conc. 795 μg/L): 30.2 mm | Weight Female (measured conc. 795 μg/L): 376 mg | Weight Male (measured conc. 795 μg/L): 282 mg | effect on fecundity (number of total eggs), in words (21-day exposure): significant difference from the control

C[C@]12C=CC3=C4CCC(=O)C=C4CC[C@H]3[C@@H]1CC[C@@H]2O [TRB, 17β‐Trenbolone]
LOEC on female SSC (papillary process formation on anal fin) (21-day exposure, measured conc.): 26.8 ng/L | Fertility rate (%) (measured conc. 8.03 ng/L): 95% | Mortality (%) Female (measured conc. 8.03 ng/L): 0% | Mortality (%) Male (measured conc. 8.03 ng/L): 0% | Number of fertilized eggs (measured conc. 8.03 ng/L): 26 | Number of total eggs (measured conc. 8.03 ng/L): 27 ± 3.5 /female/day | SSC Female (measured conc. 8.03 ng/L): 0 ± 0 | SSC Male (measured conc. 8.03 ng/L): 86 ± 3.9 | VTG (ng/mg of liver) Female (measured conc. 8.03 ng/L): 736 ± 147 ng/mg of liver | VTG (ng/mg of liver) Male (measured conc. 8.03 ng/L): 3.7 ± 3.2 ng/mg of liver | GSI Female (measured conc. 8.03 ng/L): 9.7% | GSI Male (measured conc. 8.03 ng/L): 1.04% | HSI Female (measured conc. 8.03 ng/L): 5.4% | HSI Male (measured conc. 8.03 ng/L): 1.8% | Length Female (measured conc. 8.03 ng/L): 36.4 mm | Length Male (measured conc. 8.03 ng/L): 36.7 mm | Weight Female (measured conc. 8.03 ng/L): 573 mg | Weight Male (measured conc. 8.03 ng/L): 502 mg | Fertility rate (%) (measured conc. 26.8 ng/L): 93% | Mortality (%) Female (measured conc. 26.8 ng/L): 0% | Mortality (%) Male (measured conc. 26.8 ng/L): 0% | Number of fertilized eggs (measured conc. 26.8 ng/L): 22 | Number of total eggs (measured conc. 26.8 ng/L): 24 ± 2.6 /female/day | SSC Female (measured conc. 26.8 ng/L): 6.6 ± 6.1 | SSC Male (measured conc. 26.8 ng/L): 101 ± 17 | VTG (ng/mg of liver) Female (measured conc. 26.8 ng/L): 696 ± 211 ng/mg of liver | VTG (ng/mg of liver) Male (measured conc. 26.8 ng/L): 6.5 ± 3.8 ng/mg of liver | GSI Female (measured conc. 26.8 ng/L): 11.3% | GSI Male (measured conc. 26.8 ng/L): 1.06% | HSI Female (measured conc. 26.8 ng/L): 5.5% | HSI Male (measured conc. 26.8 ng/L): 2.1% | Length Female (measured conc. 26.8 ng/L): 35.6 mm | Length Male (measured conc. 26.8 ng/L): 37.3 mm | Weight Female (measured conc. 26.8 ng/L): 515 mg | Weight Male (measured conc. 26.8 ng/L): 500 mg | Fertility rate (%) (measured conc. 84.6 ng/L): 90% | Mortality (%) Female (measured conc. 84.6 ng/L): 0% | Mortality (%) Male (measured conc. 84.6 ng/L): 0% | Number of fertilized eggs (measured conc. 84.6 ng/L): 9.1 | Number of total eggs (measured conc. 84.6 ng/L): 10 ± 2.4 /female/day | SSC Female (measured conc. 84.6 ng/L): 48 ± 6.7 | SSC Male (measured conc. 84.6 ng/L): 104 ± 8.1 | VTG (ng/mg of liver) Female (measured conc. 84.6 ng/L): 658 ± 102 ng/mg of liver | VTG (ng/mg of liver) Male (measured conc. 84.6 ng/L): 4.9 ± 4.3 ng/mg of liver | GSI Female (measured conc. 84.6 ng/L): 16.1% | GSI Male (measured conc. 84.6 ng/L): 1.11% | HSI Female (measured conc. 84.6 ng/L): 3.7% | HSI Male (measured conc. 84.6 ng/L): 2.1% | Length Female (measured conc. 84.6 ng/L): 36.1 mm | Length Male (measured conc. 84.6 ng/L): 37.7 mm | Weight Female (measured conc. 84.6 ng/L): 625 mg | Weight Male (measured conc. 84.6 ng/L): 524 mg | Fertility rate (%) (measured conc. 291 ng/L): 74% | Mortality (%) Female (measured conc. 291 ng/L): 0% | Mortality (%) Male (measured conc. 291 ng/L): 0% | Number of fertilized eggs (measured conc. 291 ng/L): 0.9 | Number of total eggs (measured conc. 291 ng/L): 1.2 ± 0.5 /female/day | SSC Female (measured conc. 291 ng/L): 76 ± 3.9 | SSC Male (measured conc. 291 ng/L): 103 ± 8.4 | VTG (ng/mg of liver) Female (measured conc. 291 ng/L): 641 ± 200 ng/mg of liver | VTG (ng/mg of liver) Male (measured conc. 291 ng/L): 4.5 ± 2.1 ng/mg of liver | GSI Female (measured conc. 291 ng/L): 18.8% | GSI Male (measured conc. 291 ng/L): 1.10% | HSI Female (measured conc. 291 ng/L): 3.4% | HSI Male (measured conc. 291 ng/L): 1.8% | Length Female (measured conc. 291 ng/L): 37.3 mm | Length Male (measured conc. 291 ng/L): 37.0 mm | Weight Female (measured conc. 291 ng/L): 691 mg | Weight Male (measured conc. 291 ng/L): 504 mg | effect on fecundity (number of total eggs), in words (21-day exposure): significantly reduced
